Experimental data taken from patent US9782379B2, “Use of protectin DX for the stimulation of muscular IL-6 secretion” (Universite Laval, priority 2013, dated 2017).

Experiments:
[1] = system: J774A.1 murine macrophages; assay: macrophages treated with palmitate in vitro; assay type: cell-based; conditions: 400 μM palmitate, 16 hours
Protocol: J774A.1 murine macrophages were maintained in DMEM (10% FBS) until 80% confluence. A 2 mM palmitate solution or methanol vehicle in alpha-MEM (12% BSA) was added to fresh DMEM (10% FBS) to give a final concentration of 400 μM palmitate. Concomitantly, PDX, RvE1, RvD1 (10 or 100 nM, Cayman chemical), or vehicle was added to the media. After 16 hours, the media was collected and cells were lysed as described for the studies in C2C12 myotubes.
Snap frozen gastrocnemius muscle and liver from mice were pulverized in liquid nitrogen then lysed overnight at 4° C. in the lysis buffer described for the C2C12 myotube experiments. Immunoblotting of myotube, macrophage, liver and muscle lysates was then performed as previously described^5. Briefly, 50 ug of protein was loaded onto a 7.5% acrylamide gel, subjected to SDS-PAGE then transferred onto nitrocellulose membranes. Membranes were then blocked and probed with the appropriate antibodies. Antibodies for p-Akt ser473, p-JNK thr183/tyr185, JNK, p-AMPK thr172, AMPK, p-STAT-3 ser727 and STAT-3 were obtained from Cell Signaling Technology (MA, USA). Antibodies for total Akt and iNOS were from Santa Cruz Biotechnology (CA, USA) and BD Transduction Laboratories™ (Canada) respectively.
Chemokines and cytokines were quantified in macrophage media, or mouse plasma using the MILLIPLEX™ MAP mouse cytokine/chemokine kit (Millipore Corporation, MA, USA). Nitrite accumulation in media was determined by Greiss assay as previously described^25. Plasma insulin levels were assessed by RIA (Linco, MI, USA). FFA were measured using an enzymatic colorimetric assay (Wako Chemicals, VA, USA). Skeletal muscle and liver IL-6 were quantified using the mouse IL-6 ELISA kit from R&D systems. Total plasma adiponectin was determined using the ELISA from ALPCO.

T37i brown adipocytes = assay: IL-6 release from cultured brown adipocytes; assay type: cell-based; conditions: norepinephrine 1 μM as adrenergic stimulus
From the text: Since brown adipose tissue was recently shown to regulate glucose homeostasis via secretion of IL-6^20 we also examined whether PDX might raise circulating IL-6 by stimulating brown fat.

[2] = system: wild-type (WT) C57BL/6J control mice; assay: second paired saline/lipid infusion 2.5 mU/kg/min hyperinsulinemic-euglycemic clamp, wild-type mice; assay type: in vivo
Protocol: (§1) For the second paired lipid infusion HIE clamp study, 10 week old male B6.129S2-ll6^tmkopf/J (IL-6 KO) and control C57BL/6J (WT) mice from Jackson Labs were used. Mice from each genetic background were randomly assigned to saline-vehicle, saline-PDX, lipid-vehicle and lipid-PDX groups. The lipid-infusion clamp study was performed as described above, except the clamp was performed with a 2.5 mU·kg^−1·min^−1 insulin infusion as per^29.
(§2) To confirm the involvement of IL-6 in the beneficial effects of PDX we performed a second round of paired lipid infusion hyperinsulinemic-euglycemic clamp studies in IL-6 null (KO) mice alongside wild-type (WT) C57BL/6J control mice. Saline-infused mice treated with PDX were added to the study to ascertain whether PDX also improves glucose metabolism in insulin-sensitive mice. To ensure detection of potential differences between insulin-sensitive saline-infused animals we performed 2.5mU/kg/min rather than 4 mU/kg/min clamps.

IL-6 null (KO) mice = assay: second paired saline/lipid infusion 2.5 mU/kg/min hyperinsulinemic-euglycemic clamp, IL-6 null mice; assay type: in vivo
Protocol: as §1, §2

[3] = saline and lipid-infused WT mice, P<0.05
[4] = saline and lipid-infused KO mice

Structure (SMILES): CC/C=C\C[C@H](O)/C=C/C=C\C=C\[C@@H](O)C/C=C\C/C=C\CCC(=O)O [PDX, 10S,17S-dihydroxy-docosa-4Z,7Z,11E,13Z,15E,19Z-hexaeonic acid]
- iNOS and JNK activation [1]: effectively suppresses
- lipid-induced IL-6 production [1]: actually suppresses
- lipid-induced secretion of CCL2/MCP-1, CCL5/RANTES, TNFα, IL-2, and IL-10 ([1]; PDX 10 or 100 nM): effectively suppresses
- release of IL-6 (T37i brown adipocytes): not able to stimulate
- Akt phosphorylation ([2]; insulin sensitive saline infused mice): without raising
- hepatic insulin action ([2]; lipid-infused WT mice, P<0.001): improved
- suppression of Ppargc1, Pck1 and G6Pc (liver mRNA) ([2]; lipid-infused WT mice, P<0.01, P<0.05, p<0.001): significantly improved the suppression
- peripheral insulin action ([2]; lipid-infused WT mice, P<0.05): improved
- GIR [2, 3]: significantly enhanced
- pre-clamp glycemia [2, 3]: significant fall
- transcriptional repression of PEPCK (liver) ([2]; saline-infused WT mice, P<0.01): additive effect
- hepatic insulin action ([2]; saline-infused WT mice, P<0.05): superior hepatic insulin action
- suppression of G6Pc (liver) ([2]; saline-infused WT mice, P=0.0614): tended to improve
- peripheral glucose disposal ([2]; saline-infused mice): did not increase
- suppression of PGC-1α (liver mRNA) ([2]; saline-infused mice): not associated with further suppression
- activation of hepatic STAT-3 (IL-6 null (KO) mice; KO mice, saline and lipid-infused): completely absent
- lipid-induced elevations in circulating TNFa (IL-6 null (KO) mice; lipid-infused IL-6 KO mice, P<0.001): potently suppress
- effect on hepatic insulin action (IL-6 null (KO) mice; lipid-infused KO mice): only partially lost
- effect on peripheral insulin action (IL-6 null (KO) mice; lipid-infused KO mice): completely absent
- effects on suppression of Ppargc1, Pck1 and G6Pc (IL-6 null (KO) mice; lipid-infused KO mice): entirely absent
- stimulatory effect on AMPK phosphorylation (muscle) (IL-6 null (KO) mice; lipid-infused KO mice): fully maintained
- IL-6 in skeletal muscle (IL-6 null (KO) mice; [4]): failed to raise
- effect on pre-clamp glycemia (IL-6 null (KO) mice; [4]): completely absent
- enhancement of GIR (IL-6 null (KO) mice; [4]): this was not the case
- effect on hepatic insulin action (IL-6 null (KO) mice; saline-infused KO mice): completely absent
- effect on transcriptional repression of PEPCK (IL-6 null (KO) mice; saline-infused KO mice): completely absent
- improved suppression of G6Pc (IL-6 null (KO) mice; saline-infused KO mice): this was not the case
